Laboratory results reported in patent US8461139B2 (Taro Pharmaceuticals North America, Inc., priority 2005, dated 2013).

Assay: pH screen stability of prednisolone acetate oral suspension (HPLC)
Assay type: physicochemical
Conditions: pH range of 5.0 to 6.2
Method: NaOH was added to the portions to give various pH values (Batch A-E) and packaged in 4 ounce amber PETG bottles. The samples were left at the environmentally stressed conditions of 40° centigrade or 50° centigrade for one month. HPLC methods were used to measure the percent of prednisolone acetate retained in the bottle.

CC(=O)OCC(=O)[C@@]1(O)CC[C@H]2[C@@H]3CCC4=CC(=O)C=C[C@]4(C)[C@H]3[C@@H](O)C[C@@]21C [Prednisolone acetate, prednisolone acetate]
Stability as a function of pH: more stable at the lower pH values
